These results are taken from US5852210A, “Cinnamic acid derivatives” (G. D. Searle & Co., priority 1997, dated 1998).

Experiment [1] has as its target T1, Human vitronectin receptor (αv β3) (Homo sapiens, UniProt P05106+P06756).
T1 construct: Human vitronectin receptor (αv β3) was purified from human placenta; from tissue; host or cells: human placenta
Kind of experiment: Vitronectin adhesion assay (solid phase receptor assay, αvβ3). Type of experiment: binding. Conditions: inhibition of binding of biotinylated human vitronectin (1 nM) to purified receptor; Table I; read-out: AvB3 IC50. How it is done:
(§1) The activity of the compounds of the present invention was tested in the following assays.
Human vitronectin receptor (αv β3) was purified from human placenta as previously described [Pytela et al., Methods in Enzymology, 144:475-489 (1987)]. Human vitronectin was purified from fresh frozen plasma as previously described [Yatohgo et al., Cell Structure and Function, 13:281-292 (1988)]. Biotinylated human vitronectin was prepared by coupling NHS-biotin from Pierce Chemical Company (Rockford, Ill.) to purified vitronectin as previously described [Charo et al., J. Biol. Chem., 266(3):1415-1421 (1991)]. Assay buffer, OPD substrate tablets, and RIA grade BSA were obtained from Sigma (St. Louis, Mo.). Anti-biotin antibody was obtained from Calbiochem (La Jolla, Calif.). Linbro microtiter plates were obtained from Flow Labs (McLean, Va.). ADP reagent was obtained from Sigma (St. Louis, Mo.).
(§2) Solid Phase Receptor Assays
This assay was essentially the same as previously reported [Niiya et al., Blood, 70:475-483 (1987)]. The purified human vitronectin receptor (αv β3) was diluted from stock solutions to […] in Tris-buffered saline containing 1.0 mM Ca^++, Mg^++, and Mn^++, pH 7.4 (TBS^+++). The diluted receptor was immediately transferred to Linbro microtiter plates at 100 μL/well (100 ng receptor/well). The plates were sealed and incubated overnight at 4° C. to allow the receptor to bind to the wells. All remaining steps were at room temperature. The assay plates were emptied and 200 μL, of 1% RIA grade BSA in TBS^+++ (TBS^+++ /BSA) were added to block exposed plastic surfaces. Following a 2 hour incubation, the assay plates were washed with TBS^+++ using a 96 well plate washer. Logarithmic serial dilution of the test compound and controls were made starting at a stock concentration of 2 mM and using 2 nM biotinylated vitronectin in TBS^+++ /BSA as the diluent. This premixing of labeled ligand with test (or control) ligand, and subsequent transfer of 50 μL aliquots to the assay plate was carried out with a CETUS Propette robot; the final concentration of the labeled ligand was 1 nM and the highest concentration of test compound was 1.0×10^-4 M. The competition occurred for two hours after which all wells were washed with a plate washer as before. Affinity purified horseradish peroxidase labeled goat anti-biotin antibody was diluted 1:3000 in TBS^+++ /BSA and 125 μL were added to each well. After 30 minutes, the plates were washed and incubated with OPD/H2 O2 substrate in 100 mM/L Citrate buffer, pH 5.0. The plate was read with a microtiter plate reader at a wavelength of 450 nm and when the maximum-binding control wells reached an absorbance of about 1.0, the final A450 were recorded for analysis. The data were analyzed using a macro written for use with the EXCEL™ spreadsheet program. The mean, standard deviation, and % CV were determined for duplicate concentrations. The mean A450 values were normalized to the mean of four maximum-binding controls (no competitor added) (B-MAX). The normalized values were subjected to a four parameter curve fit algorithm [Rodbard et al., Int.

Experiment [2] has as its target T2, Human fibrinogen receptor (αIIb β3) (Homo sapiens, UniProt P05106+P08514).
T2 construct: Human fibrinogen receptor (αIIb β3) was purified from outdated platelets; from tissue; host or cells: human outdated platelets
Put plainly: Purified IIb/IIIa receptor assay (solid phase receptor assay). Conditions: inhibition of binding of biotinylated human vitronectin (1 nM) to purified receptor; Table I. The method, then:
as §1
Human fibrinogen receptor (αIIb β3) was purified from outdated platelets. (Pytela, R., Pierschbacher, M. D., Argraves, S., Suzuki, S., and Rouslahti, E. "Arginine-Glycine-Aspartic acid adhesion receptors", Methods in Enzymology 144(1987):475-489.) Human vitronectin was purified from fresh frozen plasma as described in Yatohgo, T., Izumi, M., Kashiwagi, H., and Hayashi, M., "Novel purification of vitronectin from human plasma by heparin affinity chromatography," Cell Structure and Function 13(1988):281-292. Biotinylated human vitronectin was prepared by coupling NHS-biotin from Pierce Chemical Company (Rockford, Ill.) to purified vitronectin as previously described. (Charo, I. F., Nannizzi, L., Phillips, D. R., Hsu, M. A., Scarborough, R. M., "Inhibition of fibrinogen binding to GP IIb/IIIa by a GP IIIa peptide", J. Biol. Chem. 266(3) (1991): 1415-1421.) Assay buffer, OPD substrate tablets, and RIA grade BSA were obtained from Sigma (St. Louis, Mo.). Anti-biotin antibody was obtained from Calbiochem (La Jolla, Calif.). Linbro microtiter plates were obtained from Flow Labs (McLean, Va.). ADP reagent was obtained from Sigma (St. Louis, Mo.).
as §2
This assay is essentially the same reported in Niiya, K., Hodson, E., Bader, R., Byers-Ward, V. Koziol, J. A., Plow, E. F. and Ruggeri, Z. M., "Increased surface expression of the membrane glycoprotein IIb/IIIa complex induced by platelet activation: Relationships to the binding of fibrinogen and platelet aggregation", Blood 70 (1987):475-483. The purified human fibrinogen receptor (αIIb β3) was diluted from stock solutions to 1.0 μg/mL in Tris-buffered saline containing 1.0 mM Ca^++, Mg^++, and Mn^++, pH 7.4 (TBS^+++). The diluted receptor was immediately transferred to Linbro microtiter plates at 100 μL/well (100 ng receptor/well). The plates were sealed and incubated overnight at 4° C. to allow the receptor to bind to the wells. All remaining steps were at room temperature. The assay plates were emptied and 200 μL of 1% RIA grade BSA in TBS^+++ (TBS^+++ /BSA) were added to block exposed plastic surfaces. Following a 2 hour incubation, the assay plates were washed with TBS^+++ using a 96 well plate washer. Logarithmic serial dilution of the test compound and controls were made starting at a stock concentration of 2 mM and using 2 nM biotinylated vitronectin in TBS^+++ /BSA as the diluent. This premixing of labeled ligand with test (or control) ligand, and subsequent transfer of 50 μL aliquots to the assay plate was carried out with a CETUS Propette robot; the final concentration of the labeled ligand was 1 nM and the highest concentration of test compound was 1.0×10^-4 M. The competition occurred for two hours after which all wells were washed with a plate washer as before. Affinity purified horseradish peroxidase labeled goat anti-biotin antibody was diluted 1:3000 in TBS^+++ /BSA and 125 μL were added to each well. After 30 minutes, the plates were washed and incubated with […]/H2 O2 substrate in 100 mM/L citrate buffer, pH 5.0. The plate was read with a microtiter plate reader at a wavelength of 450 nm and when the maximum-binding control wells reached an absorbance of about 1.0, the final A450 were recorded for analysis. The data were analyzed using a macro written for use with the EXCEL™ spreadsheet program. The mean, standard deviation, and % CV were determined for duplicate concentrations. The mean A450 values were normalized to the mean of four maximum-binding controls (no competitor added) (B-MAX). The normalized values were subjected to a four parameter curve fit algorithm, [Robard et al., Int.

Structures can show the parent of a compound that is named as a salt.

T1 sequence (P06756 31-889 limits assumed): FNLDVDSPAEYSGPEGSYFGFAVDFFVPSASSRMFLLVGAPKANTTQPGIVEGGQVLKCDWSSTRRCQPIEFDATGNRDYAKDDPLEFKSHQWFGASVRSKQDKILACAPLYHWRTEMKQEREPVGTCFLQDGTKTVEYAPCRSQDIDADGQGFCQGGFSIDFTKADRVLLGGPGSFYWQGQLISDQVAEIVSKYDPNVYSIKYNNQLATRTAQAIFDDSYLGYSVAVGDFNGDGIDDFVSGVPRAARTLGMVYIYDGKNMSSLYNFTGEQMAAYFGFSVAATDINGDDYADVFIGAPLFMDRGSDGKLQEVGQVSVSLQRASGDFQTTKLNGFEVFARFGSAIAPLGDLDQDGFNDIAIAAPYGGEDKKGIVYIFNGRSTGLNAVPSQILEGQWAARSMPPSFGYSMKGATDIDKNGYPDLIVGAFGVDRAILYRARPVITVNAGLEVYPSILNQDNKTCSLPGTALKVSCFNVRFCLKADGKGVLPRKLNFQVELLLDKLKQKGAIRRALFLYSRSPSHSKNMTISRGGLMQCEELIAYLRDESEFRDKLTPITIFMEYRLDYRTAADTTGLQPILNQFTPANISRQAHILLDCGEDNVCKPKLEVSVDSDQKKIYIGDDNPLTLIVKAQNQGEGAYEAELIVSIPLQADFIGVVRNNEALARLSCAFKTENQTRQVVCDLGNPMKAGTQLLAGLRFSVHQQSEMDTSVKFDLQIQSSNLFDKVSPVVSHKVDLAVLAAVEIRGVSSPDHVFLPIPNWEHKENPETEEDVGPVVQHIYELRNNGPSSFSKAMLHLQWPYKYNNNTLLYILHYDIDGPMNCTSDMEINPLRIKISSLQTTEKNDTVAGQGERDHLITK
T1 sequence (P06756 891-1048 limits assumed): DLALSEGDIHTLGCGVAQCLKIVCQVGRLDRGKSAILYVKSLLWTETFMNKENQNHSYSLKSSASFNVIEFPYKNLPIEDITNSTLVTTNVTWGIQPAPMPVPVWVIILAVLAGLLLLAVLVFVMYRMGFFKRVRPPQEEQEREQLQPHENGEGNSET
T1 sequence (P05106 27-788): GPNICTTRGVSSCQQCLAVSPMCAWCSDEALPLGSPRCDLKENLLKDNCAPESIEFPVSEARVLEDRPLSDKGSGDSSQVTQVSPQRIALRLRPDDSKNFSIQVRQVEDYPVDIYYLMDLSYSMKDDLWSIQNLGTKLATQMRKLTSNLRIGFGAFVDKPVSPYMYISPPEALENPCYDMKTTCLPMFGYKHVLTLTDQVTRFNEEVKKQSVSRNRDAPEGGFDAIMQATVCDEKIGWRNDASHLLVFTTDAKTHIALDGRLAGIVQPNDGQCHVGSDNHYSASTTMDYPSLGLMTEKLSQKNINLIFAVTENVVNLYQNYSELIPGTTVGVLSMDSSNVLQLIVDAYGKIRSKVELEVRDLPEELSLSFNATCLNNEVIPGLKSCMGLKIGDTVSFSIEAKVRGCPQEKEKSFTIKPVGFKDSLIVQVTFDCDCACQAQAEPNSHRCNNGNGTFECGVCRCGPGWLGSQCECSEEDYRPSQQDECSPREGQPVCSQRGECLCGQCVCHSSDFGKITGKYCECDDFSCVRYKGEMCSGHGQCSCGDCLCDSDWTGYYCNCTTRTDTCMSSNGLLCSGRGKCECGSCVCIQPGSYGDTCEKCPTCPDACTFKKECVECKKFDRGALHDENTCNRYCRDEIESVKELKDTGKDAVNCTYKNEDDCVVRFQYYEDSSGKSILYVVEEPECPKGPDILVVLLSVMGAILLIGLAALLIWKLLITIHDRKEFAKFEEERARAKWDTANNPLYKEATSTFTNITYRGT
T2 sequence (P08514 32-887 limits assumed): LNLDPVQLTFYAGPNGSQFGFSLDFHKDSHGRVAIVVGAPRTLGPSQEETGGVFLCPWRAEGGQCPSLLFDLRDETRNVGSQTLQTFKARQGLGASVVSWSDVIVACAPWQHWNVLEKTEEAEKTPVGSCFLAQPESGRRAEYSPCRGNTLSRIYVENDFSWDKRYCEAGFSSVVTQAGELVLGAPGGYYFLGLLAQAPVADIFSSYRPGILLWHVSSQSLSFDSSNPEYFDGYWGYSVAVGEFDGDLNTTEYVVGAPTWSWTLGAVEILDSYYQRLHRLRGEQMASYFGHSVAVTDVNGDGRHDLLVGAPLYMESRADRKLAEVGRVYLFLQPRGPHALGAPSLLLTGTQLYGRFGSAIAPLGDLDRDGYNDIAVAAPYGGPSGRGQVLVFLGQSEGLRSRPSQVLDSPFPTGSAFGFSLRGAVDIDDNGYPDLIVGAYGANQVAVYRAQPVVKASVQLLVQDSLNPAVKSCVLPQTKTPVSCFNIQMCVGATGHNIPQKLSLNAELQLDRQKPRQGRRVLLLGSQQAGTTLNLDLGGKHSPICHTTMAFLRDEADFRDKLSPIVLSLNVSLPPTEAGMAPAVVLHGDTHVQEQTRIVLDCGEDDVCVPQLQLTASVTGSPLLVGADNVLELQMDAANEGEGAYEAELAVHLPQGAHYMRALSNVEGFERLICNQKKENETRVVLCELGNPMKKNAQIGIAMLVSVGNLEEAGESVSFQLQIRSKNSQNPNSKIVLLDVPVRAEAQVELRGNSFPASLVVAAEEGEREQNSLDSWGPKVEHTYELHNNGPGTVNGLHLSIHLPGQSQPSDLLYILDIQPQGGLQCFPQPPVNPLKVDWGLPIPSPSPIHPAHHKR
T2 sequence (P08514 891-1039 limits assumed): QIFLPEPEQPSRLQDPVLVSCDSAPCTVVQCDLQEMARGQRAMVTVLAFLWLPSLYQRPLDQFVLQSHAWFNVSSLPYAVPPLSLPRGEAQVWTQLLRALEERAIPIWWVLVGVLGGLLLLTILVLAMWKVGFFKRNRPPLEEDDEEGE
T2 sequence (P05106 27-788): as the sequence (P05106 27-788) above

Broadly, the IC50 is the concentration that gives 50% inhibition. For `N=C(N)Nc1cccc(C(=O)Nc2ccc(/C=C/C(=O)O)c(C(F)(F)F)c2)c1` [Example 35, trifluoroacetate salt], the results for the IC50 in experiment [1] and in experiment [2] were 122 nM and 152 nM, respectively.
For `N=C(N)Nc1cccc(C(=O)Nc2ccc(/C=C/C(=O)O)c(C(=O)O)c2)c1` [Example 36, 5-[[[3-[(aminoiminomethyl)amino]phenyl]carbonyl]amino]-2-(2-carboxyethenyl)benzoic acid, trifluoroacetate salt], in that order: 1.23 nM and 9.06 nM.
For `COC(=O)c1cc(NC(=O)c2cccc(NC(=N)N)c2)ccc1/C=C/C(=O)O` [Example 37, methyl 5-[[[3-[(aminoiminomethyl)amino]phenyl]carbonyl]amino]-2-(2-carboxyethenyl)benzoate, trifluoroacetate salt], in that order: 32.3 nM and 80 nM.
For `O=C(O)/C=C/c1ccc(NC(=O)c2cccc(NC3=NCCCN3)c2)cc1C(=O)O` [Example 40A, 2-(2-carboxyethenyl)-5-[[[3-[(1,4,5,6-tetrahydropyrimidin-2-yl)amino]phenyl]carbonyl]amino]benzoic acid, trifluoroacetate salt], in that order: 0.45 nM and 97.2 nM.
In the case of `COC(=O)c1cc(NC(=O)c2cccc(NC3=NCCCN3)c2)ccc1/C=C/C(=O)O` [Example 40B, methyl 2-(2-carboxyethenyl)-5-[[[3-[(1,4,5,6-tetrahydropyrimidin-2-yl)amino]phenyl]carbonyl]amino]benzoate, trifluoroacetate salt], the IC50 was determined as 5.71 nM in experiment [1] and 817 nM in experiment [2].
For `COC(=O)/C=C/c1ccc(NC(=O)c2cccc(NC3=NCCCN3)c2)cc1C(=O)O` [Example 40C, 2-[2-(methoxycarbonyl)ethenyl]-5-[[[3-[(1,4,5,6-tetrahydropyrimidin-2-yl)amino]phenyl]carbonyl]amino]benzoic acid, trifluoroacetate salt], in that order: 176 nM and 20400 nM.
For the compound `N=C(N)Nc1cccc(C(=O)Nc2ccc(/C=C/C(=O)O)c(/C=C/C(=O)O)c2)c1` [Example 42, 3-[4-[[[3-[(aminoiminomethyl)amino]phenyl]carbonyl]amino]-2-(2-carboxyethenyl)phenyl]propenoic acid, trifluoroacetate salt], the IC50 was found to be 7.6 nM in experiment [1] and 15.9 nM in experiment [2].
As for `N#Cc1cc(NC(=O)c2cccc(NC(=N)N)c2)ccc1/C=C/C(=O)O` [Example 44, 3-[4-[[[3-[(aminoiminomethyl)amino]phenyl]carbonyl]amino]-2-cyanophenyl]propenoic acid, trifluoroacetate salt], the IC50 in experiment [1] stood at 30.2 nM; in experiment [2] it was 36.2 nM.
As for `CNC(=O)c1cc(NC(=O)c2cccc(NC3=NCCCN3)c2)ccc1/C=C/C(=O)O` [Example 45, 3-[2-[(methylamino)carbonyl]-4-[[[3-[(1,4,5,6-tetrahydropyrimidin-2-yl)amino]phenyl]carbonyl]amino]phenyl]propenoic acid, bis(trifluoroacetate) salt], the IC50 worked out at 6.7 nM in experiment [1] and 759 nM in experiment [2].
For `CCOC(=O)Nc1cc(NC(=O)c2cccc(NC3=NCCCN3)c2)ccc1/C=C/C(=O)O` [Example 46, 3-[2-[(ethoxycarbonyl)amino]-4-[[[3-[(1,4,5,6-tetrahydropyrimidin-2-yl)amino]phenyl]carbonyl]amino]phenyl]propenoic acid, trifluoroacetate salt], in that order: 7.19 nM and 2600 nM.
For `O=C(O)/C=C/c1ccc(NC(=O)c2cccc(NC3=NCCCN3)c2)cc1` [Example 49, 3-[4-[[[3-[(1,4,5,6-tetrahydropyrimidin-2-yl)amino]phenyl]carbonyl]amino]phenyl]propenoic acid, trifluoroacetate salt], in that order: 2.18 nM and 661 nM.
On to `COc1cc(NC(=O)c2cccc(NC3=NCCCN3)c2)ccc1/C=C/C(=O)O` [Example 50, 3-[2-methoxy-4-[[[3-[(1,4,5,6-tetrahydropyrimidin-2-yl)amino]phenyl]carbonyl]amino]phenyl]propenoic acid, trifluoroacetate salt], for which the figures for the IC50 in experiment [1] and in experiment [2] were 0.43 nM and 772 nM, respectively.
Take `NC(=O)N=C(N)Nc1cccc(C(=O)Nc2ccc(/C=C/C(=O)O)cc2)c1` [Example 52, 3-[4-[[[3-[[amino[(aminocarbonyl)imino)methyl]amino]phenyl]carbonyl]amino]phenyl]propenoic acid, trifluoroacetate salt]: the IC50 in experiment [1] came to 72.5 nM; in experiment [2] it was 133 nM.
In the case of `N=C(N)Nc1cc(C(=O)Nc2ccc(/C=C/C(=O)O)cc2)cc(C(F)(F)F)c1` [Example 53, 3-[4-[[[3-[(aminoiminomethyl)amino]-5-(trifluoromethyl)-phenyl]carbonyl]amino]phenyl]propenoic acid, trifluoroacetate salt], the IC50 in experiment [1] is 7.89 nM; in experiment [2], 232 nM.
For `N=C(N)Nc1cc(C(=O)Nc2ccc(/C=C/C(=O)O)c(Cl)c2)cc(C(F)(F)F)c1` [Example 54, 3-[4-[[[3-[(aminoiminomethyl)amino]-5-(trifluoromethyl)phenyl]carbonyl]amino]-2-chlorophenyl]propenoic acid, trifluoroacetate salt], in that order: 12.5 nM and 686 nM.
